Results on 31 compounds are retold here after PubChem BioAssay (NCI).

Several values for one entry are separate records, joined by “and”; a condition that tells them apart may be missing. Equal values may be shown once.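 96-well plates; 48 h exposure; 5 concentrations. Endpoints by linear interpolation between flanking doses. Not reached: highest tested concentration assigned. At the GI50, growth is halved. At the TGI there is no net growth.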 A value given as a limit tells only on which side of the number the result lay.

The assay concerns MDA-MB-468 breast. Briefly: growth of human tumour cells (NCI), 48 h.

As for `CC(C)C[C@H](NC(=O)Cn1cccc(CNC(=O)c2ccccc2)c1=O)B(O)O`, the GI50 was 139 nM and the TGI was determined as 716 nM.
On to `COc1cc(F)c(F)cc1C(=O)c1cnc(NC2CCN(S(C)(=O)=O)CC2)nc1N`, for which the GI50 is 3650 nM and the TGI came to 10800 nM.
Turning to `O=c1cc(-c2ccccc2)[nH]c2c1CCCC2`, the GI50 was 1570 nM and the TGI stood at 4990 nM.
As to `COc1ccc(C2NN=C3c4ccccc4CCC32)cc1` (stereo unspecified), the TGI was 41.6 nM.
`CN1CCN(CCCOc2ccc3nc(Nc4ccc(F)c(F)c4)ccc3c2)CC1`: the GI50 was 1370 nM and the TGI turned out to be 4360 nM.
`CC1=C(CO)C(=O)O[C@@H]([C@@H](C)[C@H]2CC[C@H]3[C@@H]4C[C@H]5O[C@]56[C@@H](O)C=CC(=O)[C@]6(C)[C@H]4CC[C@]23C)C1`: the GI50 is 278 nM and the TGI was determined as 1210 nM.
As to `CN1CCN(Cc2ccc(NC(=O)c3[nH]ncc3Nc3ncnc4[nH]ccc34)cc2)CC1`, the GI50 was 247 nM and the TGI was found to be 562 nM.
For `COc1ccc2nc(C)cc(Sc3nc4ccccc4s3)c2c1`, in that order: 2200 nM and 11400 nM.
For `CCN(CC)CCCNCc1cc(-c2ccccc2)nc2cc(Cl)ccc12`, in that order: 1930 nM and 3920 nM.
In the same order, the values of `O=C1OCC2=C1C(c1cccc(C(F)(F)F)c1)c1cc3c(cc1N2CCO)OCCO3` (stereo unspecified) are 1410 nM and over 33300 nM.
Take `Cc1cc(=O)[nH]c(N/N=C/c2ccccc2O)n1`: the GI50 is 3030 nM and the TGI stood at 46900 nM.
For `COC(=O)CCC(=O)NC1=C(Nc2ccccc2)C(=O)c2ccccc2C1=O`, in that order: 3040 nM and 10500 nM.
In the same order, the values of `CN(C)CCN1C(=O)c2cccc3c(/C=C/CN4C(=O)c5cccc6cccc(c56)C4=O)ccc(c23)C1=O` are 14000 nM and 34300 nM.
Regarding `COC1=C(OC)C(=O)C(C/C=C(\C)CC/C=C(\C)CC/C=C(\C)CC/C=C(\C)CC/C=C(\C)CC/C=C(\C)CC/C=C(\C)CC/C=C(\C)CC/C=C(\C)CCC=C(C)C)=C(C)C1=O`, the GI50 was over 100000 nM and the TGI is over 100000 nM.
In the case of `Nc1nc(Cl)nc2c1ncn2C1OC(CO)C(O)C1F` (stereo unspecified), the GI50 is 285 nM and the TGI is 891 nM.
In the same order, the values of `Cc1nn(C)c2ncnc(N/N=C/c3cccc(O)c3O)c12` are 2170 nM and 6530 nM.
In the same order, the values of `O=C(Nc1ccc(-n2cc(-c3ccncc3)c(-c3ccc(O)c(Cl)c3)n2)cc1)c1ccc(Cl)c(C(F)(F)F)c1` are 2590 nM and 48400 nM.
As to `COc1cc2nc(N3CCC[C@H](NC4=CC(=O)c5ccccc5C4=O)C3)nc(N)c2cc1OC`, the GI50 was 1790 nM and the TGI worked out at 3530 nM.
As for `NC1=NC(SCc2ccccc2CCl)c2ncn(Cc3ccccc3CCl)c2N1` (stereo unspecified), the GI50 was 1710 nM and the TGI amounted to 3720 nM.
On to `CN1CCN(Cc2ccc(NC(=O)c3cncc(C#Cc4cnc5ccc(NC6CCOCC6)nn45)c3)cc2C(F)(F)F)CC1`, for which the GI50 is 33.8 nM and 19.6 nM; the TGI was 222 nM and 67.2 nM.
On to `Cc1c(Nc2nccc3cc(CN4CC[C@@H](O)C4)cnc23)cccc1-c1cccc(-c2nc3cc(CN4CC[C@@H](C(=O)O)C4)cc(C#N)c3o2)c1C`, for which the GI50 is 11200 nM and the TGI came out at 35200 nM.
With `CC(=O)c1c[nH]c2ccc(-c3ccnc(Nc4ccc(NC(=O)C5CCCC5)c(CN5CCOCC5)c4)n3)cc12`, the GI50 is 21.9 nM and the TGI came to 77.4 nM.
In the same order, the values of `O=C1NC(=O)C(=Cc2cn(Cc3ccccc3)c3ccccc23)C(=O)N1` are 142 nM and 390 nM.
For `CCN1CCN(c2cc(C(=O)Nc3cccc(Nc4ccc5c(OC)cccc5n4)c3)cc(C(F)(F)F)c2)CC1`, in that order: 749 nM and 4050 nM.
On to `Nc1c(C(=O)c2cccc(C(O)CO)c2)cnn1-c1ccc(F)cc1` (stereo unspecified), for which the GI50 is over 25000 nM and the TGI was over 25000 nM.
For `CC(C)[P+](c1ccccc1)(c1ccccc1)c1ccccc1`, the GI50 is 1120 nM and the TGI is 10700 nM.
For `O=C1NC(=O)C(c2cccc(Cl)c2)=C1Nc1ccc(Cl)c(C(=O)O)c1`, the GI50 is over 25000 nM and the TGI was over 25000 nM.
Take `CN1CCN(C(=O)c2ccc(NC(=O)Nc3ccc(-c4nc(N5CCOCC5)c5cccn5n4)cc3)cc2)CC1`: the GI50 was 21 nM and the TGI was 77 nM.
For `O=C1C(N2CCN(CCOCCO)CC2)=C(Cl)C(=O)c2ncccc21`, in that order: 19300 nM and 39300 nM.
For `O=C(O)COc1ccc(OCC(=O)O)cc1`, in that order: 326 nM and 2090 nM.
Regarding `COc1ccc(Nc2ncnc3ccc(-c4cncc(NS(C)(=O)=O)c4)cc23)cc1Cl`, the GI50 is 785 nM and the TGI was 3100 nM.
